Converted amounts (≈) assume the structure as drawn. Read-outs that look alike come from different tables or passages of the source.
Legend:
[1] = tested on: E. coli JW55031 (TolC Mutant); test: MIC/MBC (CLSI broth microdilution) against E. coli TolC mutant; assay type: cell-based; conditions: Escherichia coli
Procedure: (§1) The minimum inhibitory concentrations (MICs) of the tested compounds and control drugs, linezolid, vancomycin, and gentamicin, were determined using the broth microdilution method according to the guidelines outlined by the Clinical and Laboratory Standards Institute (CLSI) against clinically relevant bacterial (Staphylococcus aureus, MRSA, Escherichia coli, Enterococcus faecalis and Enterococcus faecium strains. S. aureus, MRSA, E. coli, Enterococcus faecalis and Enterococcus faecium were grown aerobically overnight on tryptone soy agar (TSA) plates at 37° C. Afterwards, a bacterial solution equivalent to 0.5 McFarland standard was prepared and diluted in cation-adjusted Mueller–Hinton broth (CAMHB) (for S. aureus, MRSA, and E. coli) to achieve a bacterial concentration of about 5 × 10^5 CFU/mL. Enterococcus faecalis and Enterococcus faecium 0.5 McFarland standard solution was diluted in tryptone soy broth (TSB) to achieve a bacterial concentration of about 5 × 10^5 CFU/mL. Compounds and control drugs were added in the first row of 96-well plates and serially diluted with the corresponding media containing bacteria. Plates were then incubated as previously described. […] The minimum bactericidal concentration (MBC) was tested by spotting 4 µL from wells with no growth onto TSA plates. Plates were incubated at 37 ° C for at least 18 h before recording the MBC. The MBC was categorized as the lowest concentration that reduced bacterial growth by 99.9% [45, 46, 47].

MRSA USA300 = test: MIC/MBC (CLSI broth microdilution) against MRSA USA300; assay type: cell-based, methicillin-resistant Staphylococcus aureus; conditions: Staphylococcus aureus
Procedure: as §1

[2] = tested on: E. coli BW25113 (wild-type strain); test: MIC/MBC (CLSI broth microdilution) against E. coli BW25113 wild type; assay type: cell-based, Escherichia coli; conditions: Escherichia coli
Procedure: as §1

VRE. faecalis ATCC 51299 = test: MIC/MBC (CLSI broth microdilution) against VRE faecalis ATCC 51299; assay type: cell-based; conditions: Enterococcus
Procedure: as §1

VRE. faecium ATCC 700221 = test: MIC/MBC (CLSI broth microdilution) against VRE faecium ATCC 700221; assay type: cell-based; conditions: Enterococcus
Procedure: as §1

VRE. faecalisATCC 51575 = test: MIC/MBC (CLSI broth microdilution) against VRE faecalis ATCC 51575; assay type: cell-based; conditions: Enterococcus
Procedure: as §1

[3] = tested on: L. monocytogenes ATCC 19115; test: MIC/MBC (CLSI broth microdilution) against L. monocytogenes ATCC 19115; assay type: cell-based; conditions: Listeria monocytogenes, ATCC19115
E. faecalis ATCC 29212 = test: MIC/MBC (CLSI broth microdilution) against E. faecalis ATCC 29212; assay type: cell-based; conditions: Enterococcus faecalis, ATCC29212
Procedure: as §1

S. aureus ATCC 25923 = test: MIC/MBC (CLSI broth microdilution) against S. aureus ATCC 25923; assay type: cell-based; conditions: Staphylococcus aureus, ATCC25923
Procedure: as §1

N. gonorrhoeae 194 = test: MIC/MBC against N. gonorrhoeae clinical isolate 194; assay type: cell-based; conditions: Neisseria gonorrhoeae
Procedure: (§2) Briefly, bacteria were grown overnight on chocolate agar II at 37° C in the presence of 5% CO2. Afterwards, a bacterial suspension equivalent to 1.0 McFarland standard was prepared and diluted in brucella broth supplemented with yeast extract, neopeptone, hematin, pyridoxal, and NAD. Test agents were added in the first row of the 96-well plates and serially diluted along the plates. Plates were then incubated at 37° C in the presence of 5% CO2 for 24 h. […] Plates were then incubated at 37 ° C in the presence of 5% CO2 for 24 h. The MBC was categorized as the lowest concentration that reduced bacterial growth by 99.9% [45, 46, 47].

N. gonorrhoeae 200 = test: MIC/MBC against N. gonorrhoeae clinical isolate 200; assay type: cell-based; conditions: Neisseria gonorrhoeae
Procedure: as §2

N. gonorrhoeae WHO L = test: MIC/MBC against N. gonorrhoeae WHO L reference strain; assay type: cell-based; conditions: Neisseria gonorrhoeae
Procedure: as §2

[4] = tested on: N. gonorrhoeae strain 181; test: MIC by broth microdilution against N. gonorrhoeae strain 181; assay type: cell-based, Neisseria gonorrhoeae; conditions: Neisseria gonorrhoeae; N. gonorrhoeae strain 181; read-out: MIC
Procedure: as §2

N. gonorrhoeae 165 = test: MIC/MBC against N. gonorrhoeae clinical isolate 165; assay type: cell-based; conditions: Neisseria gonorrhoeae
Procedure: as §2

N. gonorrhoeae 197 = test: MIC/MBC against N. gonorrhoeae clinical isolate 197; assay type: cell-based; conditions: Neisseria gonorrhoeae
Procedure: as §2

N. gonorrhoeae 166 = test: MIC/MBC against N. gonorrhoeae clinical isolate 166; assay type: cell-based; conditions: Neisseria gonorrhoeae
Procedure: as §2

Question: Which results are given for `CC(=O)NC[C@H]1CN(c2ccc(N3CCOCC3)c(F)c2)C(=O)O1` [Linezolid, linezolid, reference compound]?
Answer: MBC [1]: > 64 µg/mL; MIC [1]: 8 µg/mL (≈ 23.7 µM); MBC (MRSA USA300; MRSA USA300, read-out: MBC): 16 µg/mL (≈ 47.4 µM); MIC (MRSA USA300; MRSA USA300, read-out: MIC): 1 µg/mL (≈ 2.96 µM); MBC ([2]; E. coli BW25113 wild-type strain, read-out: MBC): > 64 µg/mL; MIC ([2]; E. coli BW25113 wild-type strain, read-out: MIC): > 64 µg/mL; MBC (VRE. faecalis ATCC 51299; VRE faecalis ATCC 51299, read-out: MBC): 32 µg/mL (≈ 94.9 µM); MIC (VRE. faecalis ATCC 51299; VRE faecalis ATCC 51299, read-out: MIC): 1 µg/mL (≈ 2.96 µM); MBC (VRE. faecium ATCC 700221; VRE faecium ATCC 700221, read-out: MBC): 64 µg/mL (≈ 190 µM); MIC (VRE. faecium ATCC 700221; VRE faecium ATCC 700221, read-out: MIC): 2 µg/mL (≈ 5.93 µM); MBC (VRE. faecalisATCC 51575; VRE faecalis ATCC 51575, read-out: MBC): 64 µg/mL (≈ 190 µM); MIC (VRE. faecalisATCC 51575; VRE faecalis ATCC 51575, read-out: MIC): 2 µg/mL (≈ 5.93 µM); MBC ([3]; L. monocytogenes ATCC 19115, read-out: MBC): 64 µg/mL (≈ 190 µM); MIC ([3]; L. monocytogenes ATCC 19115, read-out: MIC): 2 µg/mL (≈ 5.93 µM); MBC (E. faecalis ATCC 29212; E. faecalis ATCC 29212, read-out: MBC): 64 µg/mL (≈ 190 µM); MIC (E. faecalis ATCC 29212; E. faecalis ATCC 29212, read-out: MIC): 2 µg/mL (≈ 5.93 µM); MBC (S. aureus ATCC 25923; S. aureus ATCC 25923, read-out: MBC): 64 µg/mL (≈ 190 µM); MIC (S. aureus ATCC 25923; S. aureus ATCC 25923, read-out: MIC): 2 µg/mL (≈ 5.93 µM)

Question: `CN(C)[C@@H]1C(O)=C(C(N)=O)C(=O)[C@@]2(O)C(O)=C3C(=O)c4c(O)cccc4[C@@](C)(O)[C@H]3C[C@@H]12` [Tetracycline, tetracycline, reference compound] was tested. Which MBC (N. gonorrhoeae 194) did it give?
Answer: 4 µg/mL (≈ 9 µM)

Question: What about the MIC (N. gonorrhoeae 194) of the same compound?
Answer: 1 µg/mL (≈ 2.25 µM)

Question: What about the MBC (N. gonorrhoeae 200) of the same compound?
Answer: 8 µg/mL (≈ 18 µM)

Question: What about the MIC (N. gonorrhoeae 200) of the same compound?
Answer: 2 µg/mL (≈ 4.5 µM)

Question: What about the MBC (N. gonorrhoeae WHO L) of the same compound?
Answer: 2 µg/mL (≈ 4.5 µM)

Question: What about the MIC (N. gonorrhoeae WHO L) of the same compound?
Answer: 0.5 µg/mL (≈ 1.13 µM)

Question: And the MIC [4]?
Answer: 2 µg/mL (≈ 4.5 µM)

Question: And the MBC (N. gonorrhoeae 165)?
Answer: 8 µg/mL (≈ 18 µM)

Question: What about the MIC (N. gonorrhoeae 165) of the same compound?
Answer: 4 µg/mL (≈ 9 µM)

Question: What about the MBC (N. gonorrhoeae 197) of the same compound?
Answer: 4 µg/mL (≈ 9 µM)

Question: And the MIC (N. gonorrhoeae 197)?
Answer: 2 µg/mL (≈ 4.5 µM)

Question: What about the MBC (N. gonorrhoeae 166) of the same compound?
Answer: 8 µg/mL (≈ 18 µM)

Question: And the MIC (N. gonorrhoeae 166)?
Answer: 2 µg/mL (≈ 4.5 µM)

Question: Which MBC [1] does the source give for `CN[C@H](CC(C)C)C(=O)N[C@H]1C(=O)N[C@@H](CC(N)=O)C(=O)N[C@H]2C(=O)N[C@H]3C(=O)N[C@H](C(=O)N[C@H](C(=O)O)c4cc(O)cc(O)c4-c4cc3ccc4O)[C@H](O)c3ccc(c(Cl)c3)Oc3cc2cc(c3O[C@@H]2O[C@H](CO)[C@@H](O)[C@H](O)[C@H]2O[C@H]2C[C@](C)(N)[C@H](O)[C@H](C)O2)Oc2ccc(cc2Cl)[C@H]1O` [Vancomycin, vancomycin, reference compound] here?
Answer: > 64 µg/mL

Question: What about the MIC [1] of the same compound?
Answer: > 64 µg/mL

Question: What about the MBC (MRSA USA300) of the same compound?
Answer: 2 µg/mL (≈ 1.38 µM)

Question: What about the MIC (MRSA USA300) of the same compound?
Answer: 1 µg/mL (≈ 0.69 µM)

Question: And the MBC ([2]; BW25113)?
Answer: > 64 µg/mL

Question: And the MIC ([2]; BW25113)?
Answer: > 64 µg/mL

Question: And the MBC (VRE. faecalis ATCC 51299)?
Answer: > 64 µg/mL

Question: What about the MIC (VRE. faecalis ATCC 51299) of the same compound?
Answer: > 64 µg/mL

Question: What about the MBC (VRE. faecium ATCC 700221) of the same compound?
Answer: 32 µg/mL (≈ 22.1 µM)

Question: And the MIC (VRE. faecium ATCC 700221)?
Answer: 32 µg/mL (≈ 22.1 µM)

Question: And the MBC (VRE. faecalisATCC 51575)?
Answer: > 64 µg/mL

Question: What about the MIC (VRE. faecalisATCC 51575) of the same compound?
Answer: > 64 µg/mL

Question: What about the MBC [3] of the same compound?
Answer: 1 µg/mL (≈ 0.69 µM)

Question: What about the MIC [3] of the same compound?
Answer: 1 µg/mL (≈ 0.69 µM)

Question: And the MBC (E. faecalis ATCC 29212)?
Answer: 1 µg/mL (≈ 0.69 µM)

Question: And the MIC (E. faecalis ATCC 29212)?
Answer: 1 µg/mL (≈ 0.69 µM)

Question: And the MBC (S. aureus ATCC 25923)?
Answer: 1 µg/mL (≈ 0.69 µM)

Question: What about the MIC (S. aureus ATCC 25923) of the same compound?
Answer: 1 µg/mL (≈ 0.69 µM)

Source: article PMC7957578, “N-(1,3,4-Oxadiazol-2-yl)Benzamides as Antibacterial Agents against Neisseria gonorrhoeae” (International Journal of Molecular Sciences, 2021)
